Test system: Erysiphe graminis f. sp. hordei
Settings: in vivo

SMILES: CC#CC(C)(C)NC(=O)C(OCC)Oc1cncc(Cl)c1 (stereo not shown) [1 (1), 2-(5-chloropyridyl-3-oxy)-2-(ethoxy)-N-(2-methylpent-3-yn-2-yl) acetamide]
- control of disease: > 60%
